Laboratory results: article PMC10124317 (Biochemistry, 2023)

Target: HDAC1 (Homo sapiens, UniProt Q13547)
Conditions: HDAC1 0.1 μM preincubated 10 min with 5 μM TSA, then 1b or 2b

Sequence of HDAC1 (Q13547 whole entry): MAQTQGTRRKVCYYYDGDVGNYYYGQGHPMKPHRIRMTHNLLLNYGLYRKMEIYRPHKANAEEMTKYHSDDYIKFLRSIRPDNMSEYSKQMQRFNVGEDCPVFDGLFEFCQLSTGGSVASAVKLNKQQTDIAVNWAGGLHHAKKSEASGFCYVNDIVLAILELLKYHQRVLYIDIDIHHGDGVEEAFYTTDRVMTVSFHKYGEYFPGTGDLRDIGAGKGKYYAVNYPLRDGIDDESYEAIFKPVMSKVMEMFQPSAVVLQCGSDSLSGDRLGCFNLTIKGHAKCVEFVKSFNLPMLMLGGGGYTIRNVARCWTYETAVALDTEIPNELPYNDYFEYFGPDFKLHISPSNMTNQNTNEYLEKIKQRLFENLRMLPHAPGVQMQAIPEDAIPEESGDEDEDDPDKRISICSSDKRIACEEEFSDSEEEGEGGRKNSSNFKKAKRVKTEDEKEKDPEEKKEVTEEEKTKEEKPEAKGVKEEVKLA

covalent modification of HDAC1 remaining after preincubation with TSA: ~ 10%
Substance: trichostatin A [TSA]
